Broadly, the solubility is the concentration that dissolves in the medium under given conditions.

≈ marks a conversion by molar mass, not a printed value.

In one data set the test system is U2OS cells. Put plainly: Protective effect on U2OS cells against FK866-induced cytotoxicity (Cell Titer-Glo viability). It is filed as cell-based. Particulars: Homo sapiens, 10 nM FK866, test compound 10 µM, 72 h, viability relative to control minus that of model group, read-out: Percentage increase in cell viability. Here is the method: The main objective of this example is to investigate the protective effects of the compounds in Example 1 against the cytotoxicity resulting from FK866-mediated reduction in NAD+ levels.
Method: U2OS cells were selected and seeded into culture plates. After cell stabilization for 1 day, 10 nM of FK866 was added to all groups except the control group to induce cell death. Meanwhile, the test compounds at a concentration of 10 µM were added to the corresponding drug treatment groups, respectively. An equivalent volume of the compound solvent was added to the control group and the model group, respectively. Following incubation for 72 h, Cell Titer-Glo Luminescent cell viability assay reagent (manufacturer: Promega) was added to each well. After mixing well and incubation for 10 minutes, luminescence was detected using a microplate reader with full-wavelength scanning. The pharmacological efficacy of the compounds, expressed as the percentage increase in cell viability, was calculated by subtracting the percentage of the cell viability in the model group relative to the control group from the percentage of the cell viability in the compound-treated group relative to the control group.
(ATP-based viability assays read luminescence as a measure of living cells.)

In the next data set the test system is HSF cells. Put plainly: p16 mRNA in UVA-irradiated HSF cells (qPCR), anti-aging. It is filed as cell-based. Conditions: 10 µM, 24 h then UVA, mRNA by qPCR, vs model group; FIG. 7. Here is the method:
The main objective of this example is to investigate the anti-aging effect of the compounds in Example 1.
Method: HSF cells were selected and seeded into culture plates. After stabilization for 24 h, the NPL-4 group was treated with 10 µM NPL-4, while the control group and model group were treated with an equivalent volume of the compound solvent, respectively. After 24 h of treatment, all groups except the control group were irradiated with UVA to induce cell senescence. The cells were then collected and RNA was extracted. The mRNA level of the senescence-associated gene p16 was determined using qPCR.

A further data set deals with Wild-type zebrafish. Put plainly: DNA damage repair in zebrafish, hydrogen peroxide model (comet assay). It is filed as in vivo. Particulars: 0.25% for 5 days, DNA olive tail moment, vs model group, FIG. 11. Here is the method:
The main objective of this example is to investigate the repairing effect of the compounds in Example 1 on DNA damage.
Method: Wild-type zebrafish were placed in a 6-well plate. All groups except the control group were treated with hydrogen peroxide to establish a zebrafish DNA damage model. Meanwhile, the NPL-4 group was treated with 0.25% NPL-4 for 5 days, while the control group and model group were treated with an equivalent volume of the compound solvent. The medium was renewed daily. Subsequently, zebrafish samples were collected and ground to prepare cell suspensions. Electrophoresis was performed using a comet assay kit, and data were collected and analyzed using comet analysis software. The DNA olive tail moment value of zebrafish cells was analyzed to evaluate the degree of DNA damage.

The subject of a further data set is tibialis anterior. Put plainly: CTX-induced muscle injury model (tibialis anterior, HE staining). The data set is classed as in vivo, C57BL/6 mice. Particulars: 3 mg/kg intraperitoneal once daily, 10 µM CTX into tibialis anterior, vs model group; FIG. 5. The procedure:
The main objective of this example is to investigate the protective effect of the compounds in Example 1 in a muscle injury model. Method: Male C57BL/6 mice with 8-9 weeks old in the model group and the NPL-4 group were injected intraperitoneally with the corresponding solvent or compounds, respectively, for 1 consecutive week. Subsequently, 10 µM CTX was injected into the tibialis anterior for modeling. After another 7 days, the tibialis anterior was harvested for HE staining to evaluate the injury status of the tibialis anterior of the mice. The grouping was as follows: • Control group: 8 male C57BL/6 mice with 8-9 weeks old were treated with the same solvent as in the NPL-4 group via intraperitoneal injection once daily. One week later, normal saline was injected into the tibialis anterior for modeling, while intraperitoneal injection was continued. Seven days later, the tibialis anterior was harvested for HE staining. • Model group: 8 male C57BL/6 mice with 8-9 weeks old were treated with the same solvent as in the NPL-4 group via intraperitoneal injection once daily. One week later, 10 µM CTX was injected into the tibialis anterior for modeling, while intraperitoneal injection was continued. […]

Data set [1] has as its system Transgenic zebrafish with green fluorescent mitochondria. Put plainly: Mitochondrial function in zebrafish, cobalt chloride model. Conditions: 0.25%, 22 h then cobalt chloride 4 h, vs model group; FIG. 10. The data set is classed as in vivo. The procedure:
The main objective of this example is to investigate the effect of the compounds in Example 1 on mitochondrial function.
Method: Transgenic zebrafish with green fluorescent mitochondria were placed in a 6-well plate. The NPL-4 group was treated with NPL-4 at a concentration of 0.25%, while the control group and model group were treated with an equivalent volume of the compound solvent. After treatment in the dark for 22 h, all groups except the control group were treated with cobalt chloride for modeling. Following incubation in the dark for additional 4 h, the fluorescence intensity of the zebrafish was detected.

The next data set is described as follows: Solubility of compounds. It is filed as physicochemical. Conditions: acidic pH conditions. The procedure: The main objective of this example is to investigate the solubility of the compounds in Example 1.
Method: A certain amoun of NPL-00, NPL-000, and NPL-1 were weighed and transferred into centrifuge tubes, respectively. Solvent was added to each tube, and the pH value of the system was adjusted with hydrochloric acid and sodium hydroxide. The mixture was shaken for 30 s every 5 min, and the dissolution state was observed within 30 min. If incomplete dissolution was observed, additional solvent was supplemented, and the above operations were repeated until the compounds were completely dissolved, and the volume of solvent at this moment was recorded. The solubility of less than 0.1 mg/mL was defined as "insoluble."

In the next data set the test system is mouse skin. Put plainly: NAD+ level in mouse skin after topical application. The data set is classed as in vivo, C57BL/6 mice. Particulars: 3% topical application to the skin, 6 hours, compared to the control group; FIG. 3. The procedure:
The main objective of this example is to investigate the effect of the Compound NPL-1 in Example 1 on elevating NAD+ level in mouse skin via topical administration.
Method: Male C57BL/6 mice with 8-9 weeks old were treated with 3% of the Compound NPL-1 via topical application to the skin, and mouse skin samples were collected 6 hours later for NAD+ level detection.

Another data set concerns C2C12 cells. Put plainly: Differentiation of C2C12 cells (MYH1 immunostaining). It is filed as cell-based. Particulars: 0.3 µM, 7 days, medium with 2% HBS, vs control group; FIG. 4. The procedure: The main objective of this example is to investigate the promotive effect of the compounds in Example 1 on the differentiation of muscle stem cells.
Method: C2C12 cells were selected and seeded into culture plates. After stabilization for 48 h, the medium was replaced with a medium containing 2% HBS to induce differentiation of the C2C12 cells. Meanwhile, the treatment group was treated with 0.3 µM NPL-1, while the control group was treated with an equivalent volume of the compound solvent. After continuous culture for 7 days, immunohistochemical staining was performed using MYH1 antibody, and the cell nuclei were stained with DAPI. Finally, the two channels were merged to analyze the degree of cell differentiation.

For a further data set, the system named is Hacat cells. Put plainly: ROS in UVA-irradiated Hacat cells (DCFH-DA fluorescence), antioxidation. It is filed as cell-based. Conditions: 10 µM, 24 h then UVA, vs model group, FIG. 8. The procedure:
The main objective of this example is to investigate the antioxidation effect of the compounds in Example 1.
Method: Hacat cells were selected and seeded into culture plates. After stabilization for 24 h, the NPL-1 group was treated with 10 µM NPL-1, while the control group and model group were treated with an equivalent volume of the compound solvent, respectively. After 24 h of treatment, all groups except the control group were irradiated with UVA for modeling. At 0.5 h after the modeling was completed, the fluorescent probe DCFH-DA was added and incubated for 0.5 h, followed by fluorescence intensity measurement to evaluate the expression level of ROS.

As to `CC(C)(C)c1nccnc1CCC(=O)Nc1ccc(O)cc1` [NPL-74, 3-(3-(tert-butyl)pyrazin-2-yl)-N-(4-hydroxyphenyl)propionamide], the increase in cell viability over FK866 model group at 10 µM in the data set with U2OS cells is 98.6%.

Consider `CC(=O)Nc1ccc(NC(=O)COc2cccnc2C(C)(C)C)cc1` [NPL-4], for which the “expression of p16” value with HSF cells is “markedly down-regulated”. Besides, the DNA damage result with Wild-type zebrafish is “significantly ameliorated”. Besides, the damaged area entry in the data set on tibialis anterior is “significantly smaller”. Also, the mitochondrial fluorescence intensity entry in data set [1] is given as “significantly enhanced”. In addition, in the data set on U2OS cells, the increase in cell viability over FK866 model group at 10 µM was 128%.

`CC(C)(C)c1ncncc1CCC(=O)Nc1ccc(O)cc1` [NPL-51, 3-(4-(tert-butyl)pyrimidin-5-yl)-N-(4-hydroxyphenyl)propionamide]: the increase in cell viability over FK866 model group at 10 µM in the data set with U2OS cells came out at 105%.

In turn, `CC(C)(C)c1ccccc1OCC(=O)Nc1ccc(O)cc1` [NPL-00] registered a solubility in “Solubility of compounds” of under 100 µg/mL.

On to `CC(=O)Nc1ccc(NC(=O)COc2ncncc2C(C)(C)C)cc1` [NPL-79, 2-((5-(tert-butyl)pyrimidin-4-yl)oxy)-N-(4-(acetamido)phenyl)acetamide], for which the increase in cell viability over FK866 model group at 10 µM in the data set with U2OS cells turned out to be 97.9%.

As for `CC(C)(C)c1nccnc1CCC(=O)Nc1ccc2[nH]c(=O)oc2c1` [NPL-76, 3-(3-(tert-butyl)pyrazin-2-yl)-N-(2-oxo-2,3-dihydrobenzo[d]oxazol-6-yl)propionamide], the increase in cell viability over FK866 model group at 10 µM in the data set with U2OS cells came out at 99%.

For `CC(=O)Nc1ccc(NC(=O)COc2nccnc2C(C)(C)C)cc1` [NPL-70, N-(4-acetaminophenyl)-2-((3-(tert-butyl)pyrazin-2-yl)oxy)acetamide], the increase in cell viability over FK866 model group at 10 µM in the data set with U2OS cells came to 112%.

As to `CC(=O)Nc1ccc(NC(=O)CCc2nccnc2C(C)(C)C)cc1` [NPL-67, N-(4-acetaminophenyl)-3-(3-(tert-butyl)pyrazin-2-yl)propionamide], the increase in cell viability over FK866 model group at 10 µM in the data set with U2OS cells was 99.3%.

In the data set “Solubility of compounds”, `CC(C)(C)c1cccc(C#N)c1OCC(=O)Nc1ccc(O)cc1` [NPL-000] showed a solubility of under 100 µg/mL.

As to `CC(C)(C)c1nccnc1OCC(=O)Nc1ccc2[nH]c(=O)oc2c1` [NPL-71, 2-((3-(tert-butyl)pyrazin-2-yl)oxy)-N-(2-oxo-2,3-dihydrobenzo[d]oxazol-6-yl)acetamide], the increase in cell viability over FK866 model group at 10 µM in the data set on U2OS cells amounted to 106%.

Take `CC(C)(C)c1ncccc1OCC(=O)Nc1ccc(O)cc1` [NPL-1]: the “NAD+ level in the mouse skin” value with mouse skin is given as “effectively elevated”. Further, in the data set with C2C12 cells, the “expression level of MYH1” value was “significantly higher”. In addition, the “expression level of ROS” value with Hacat cells is “markedly decreased”. Moreover, in “Solubility of compounds”, the solubility is 7000 µg/mL (≈ 23.3 mM).

The record behind these values is patent EP4800006A1, “NICOTINAMIDE PHOSPHORIBOSYL TRANSFERASE AGONIST AND USE THEREOF” (Nanjing Reju Therapeutics Co. Ltd., priority 2023, dated 2025).
